Patent publication EP0115821A1, “Fluoran compounds” (HODOGAYA CHEMICAL CO., LTD., priority 1983, dated 1984)

Assay: Solubility in organic solvents
Type: physicochemical
Conditions: at 50°C; for solubility (% by weight) in organic solvents: Hyzole-296: Hyzole-296 (diallylethane compound); for solubility (% by weight) in organic solvents: KMC-113: KMC-113 (alkyl naphthalene compound)
Description: The solubility of the fluoran compounds (B), (C) and (D) of the present invention in organic solvents was compared with that of the above-mentioned conventional fluoran compounds(A-1), (A-2) and (A-3), and the results are shown in Table 1.
Note: KMC-113 is an alkyl naphthalene compound manufactured by Kureha Chemical Industry Co. Ltd., and Hyzole-296 is a diallylethane compound manufactured by Nippon Petrochemical Co. Ltd. Both are organic solvents commonly used for pressure sensitive record sheets.

Compound	solubility (% by weight) in organic solvents: Hyzole-296	solubility (% by weight) in organic solvents: KMC-113
CCN(CC)c1ccc2c(c1)Oc1ccc(NCc3ccc(Cl)cc3)cc1C21OC(=O)c2ccccc21 (stereo not drawn) [(A-3), 2-(4-chlorobenzylamino)-6-diethylamino fluoran]	3.10% by weight	1.90% by weight
CCN(CC)c1ccc2c(c1)Oc1ccc(NCc3ccccc3)cc1C21OC(=O)c2ccccc21 (stereo not drawn) [Compound (A-1), 2-benzylamino-6-diethylamino fluoran]	1.40% by weight	0.44% by weight
CCN(CC)c1ccc2c(c1)Oc1ccc(NCc3ccccc3Cl)cc1C21OC(=O)c2ccccc21 (stereo not drawn) [Compound (A-2), 2-(2-chlorobenzylamino)-6-diethylamino fluoran]	1.80% by weight	1.20% by weight
CCCCN(CCCC)c1ccc2c(c1)Oc1ccc(NCc3ccccc3Cl)cc1C21OC(=O)c2ccccc21 (stereo not drawn) [Compound (B), 2-(2-chlorobenzylamino)-6-di-n-butylamino-fluoran]	4.80% by weight	3.30% by weight
CCCCN(CCCC)c1ccc2c(c1)Oc1ccc(NCc3cccc(Cl)c3)cc1C21OC(=O)c2ccccc21 (stereo not drawn) [Compound (C), 2-(3-chlorobenzylamino)-6-di-n-butylamino-fluoran]	6.30% by weight	4.20% by weight
CCCCN(CCCC)c1ccc2c(c1)Oc1ccc(NCc3ccc(Cl)cc3)cc1C21OC(=O)c2ccccc21 (stereo not drawn) [Compound (D), 2-(4-chlorobenzylamino)-6-di-n-butylamino-fluoran]	7.20% by weight	3.80% by weight
